The test relates to L1210 leukemia ip in BDF1 mice, survival T/C. As to the kind of experiment: NCI In Vivo Anticancer Drug Screen. Data for tumor model L1210 Leukemia (intraperitoneal) in B6D2F1 (BDF1) mice. The note with it: endpoint: mean survival time, higher = longer survival. The method, boiled down: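 Antitumor effect is assessed in tumor-bearing animals. Survival in the compound arm is compared with a vehicle-dosed control arm and expressed as their quotient.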

Setting [1] is: dose: 100.0 mg/kg/injection, schedule: Q04DX003 (ip), vehicle: Klucel (hydroxypropylcellulose) (HPC).
The mark [2] stands for this setting: dose: 200.0 mg/kg/injection, schedule: Q04DX003 (ip), vehicle: Klucel (hydroxypropylcellulose) (HPC).
Where [3] appears, read: dose: 400.0 mg/kg/injection, schedule: Q04DX003 (ip), vehicle: Klucel (hydroxypropylcellulose) (HPC).
Where [4] appears, read: dose: 100.0 mg/kg/injection, schedule: Q04DX003 (ip), vehicle: saline with Tween-80.
Where [5] appears, read: dose: 200.0 mg/kg/injection, schedule: Q04DX003 (ip), vehicle: saline with Tween-80.
Where [6] appears, read: dose: 100.0 mg/kg/injection, schedule: Q01DX009 (ip), vehicle: Klucel (hydroxypropylcellulose) (HPC).
[7] abbreviates: dose: 200.0 mg/kg/injection, schedule: Q01DX009 (ip), vehicle: Klucel (hydroxypropylcellulose) (HPC).
Where [8] appears, read: dose: 400.0 mg/kg/injection, schedule: Q01DX009 (ip), vehicle: Klucel (hydroxypropylcellulose) (HPC).
[9] abbreviates: dose: 100.0 mg/kg/injection, schedule: Q01DX001 (ip), vehicle: saline with Tween-80.
Where [10] appears, read: dose: 200.0 mg/kg/injection, schedule: Q01DX001 (ip), vehicle: saline with Tween-80.
The mark [11] stands for this setting: dose: 100.0 mg/kg/injection, schedule: Q01DX001 (ip), vehicle: saline.
[12] abbreviates: dose: 200.0 mg/kg/injection, schedule: Q01DX001 (ip), vehicle: saline.
The mark [13] stands for this setting: dose: 400.0 mg/kg/injection, schedule: Q01DX001 (ip), vehicle: saline.

“And” between values parts separate entries of the source, which are not always exact repeats. Equal values may be shown once. Inconclusive results and toxic doses are left out. Peptide text beside a SMILES is read from it. * marks the point of attachment. Cbz = O=C(OCc1ccccc1)*; OtBu = CC(C)(C)O*

As to `COC(=O)C(CCC(=O)OC(C)(C)C)NC(=O)C(CCC(=O)OC(C)(C)C)NC(=O)OCc1ccccc1` (centres undefined) (Cbz-Glu(OtBu)-Glu(OtBu)-OMe; configuration not given here), the T/C is, setting by setting: under setting [1], 100 % of control; under setting [2], 99 % of control; under setting [3], 103 % of control.

In the case of `CCOC(=O)Nc1nccs1`, the T/C reads like this: under setting [4], 105 % of control; under setting [5], 96 % of control.

Take `CC(=O)N(c1ccccc1)c1ccc(-c2ccc(N(C(C)=O)c3ccccc3)cc2)cc1`: the T/C by setting is: (dose: 50.0 mg/kg/injection, schedule: Q01DX001 (ip), vehicle: other) 100 % of control; (dose: 100.0 mg/kg/injection, schedule: Q01DX001 (ip), vehicle: other) 105 % of control; (dose: 200.0 mg/kg/injection, schedule: Q01DX001 (ip), vehicle: other) 100 % of control; (dose: 400.0 mg/kg/injection, schedule: Q01DX001 (ip), vehicle: other) 89 % of control.

Consider `COc1cc(OC)c(NC(=O)NC(C)(C)C)cc1Cl`, for which the T/C under setting [6] was 93 % of control, the T/C under setting [7] was 95 % of control and the T/C under setting [8] is 98 % of control.

As for `CCN(CC)CCCC(C)Nc1cc(N)nc2nc(-c3ccccc3)cnc12` (centres undefined) (tested in a mixture with another compound), the T/C is 86 % of control and 91 % of control (dose: 75.0 mg/kg/injection, schedule: Q01DX001 (ip), vehicle: saline); 97 % of control (dose: 150.0 mg/kg/injection, schedule: Q01DX001 (ip), vehicle: saline).

For `COc1ccc(CCCCI)cc1`, the T/C is, setting by setting: (dose: 100.0 mg/kg/injection, schedule: Q01DX001 (ip), vehicle: acetone) 98 % of control; (dose: 100.0 mg/kg/injection, schedule: Q04DX003 (ip), vehicle: acetone) 93 % of control; (dose: 200.0 mg/kg/injection, schedule: Q01DX001 (ip), vehicle: acetone) 95 % of control; (dose: 200.0 mg/kg/injection, schedule: Q04DX003 (ip), vehicle: acetone) 94 % of control; (dose: 400.0 mg/kg/injection, schedule: Q01DX001 (ip), vehicle: acetone) 115 % of control; (dose: 400.0 mg/kg/injection, schedule: Q04DX003 (ip), vehicle: acetone) 95 % of control.

In the case of `Cn1[nH]c(=O)c2ccccc2c1=O`, the T/C by setting is: (dose: 8.2 mg/kg/injection, schedule: Q04DX003 (ip), vehicle: Klucel (hydroxypropylcellulose) (HPC)) 104 % of control; (dose: 12.5 mg/kg/injection, schedule: Q04DX003 (ip), vehicle: Klucel (hydroxypropylcellulose) (HPC)) 109 % of control and 120 % of control; (dose: 18.0 mg/kg/injection, schedule: Q04DX003 (ip), vehicle: Klucel (hydroxypropylcellulose) (HPC)) 108 % of control; (dose: 25.0 mg/kg/injection, schedule: Q04DX003 (ip), vehicle: Klucel (hydroxypropylcellulose) (HPC)) 97 % of control; (dose: 50.0 mg/kg/injection, schedule: Q04DX003 (ip), vehicle: Klucel (hydroxypropylcellulose) (HPC)) 110 % of control; under setting [1], 106 % of control. Further, the T/C under setting [2] is 106 % of control and the T/C under setting [3] was 103 % of control.

For the compound `CN1CCC(OC(=O)N(c2ccccc2)c2ccccc2)CC1`, the T/C is, setting by setting: under setting [9], 99 % of control; under setting [10], 105 % of control.

As to `COc1ccc([N+](=O)[O-])cc1NC(=O)c1ccc(Cl)cc1`, the T/C is 96 % of control (dose: 50.0 mg/kg/injection, schedule: Q01DX009 (ip), vehicle: Klucel (hydroxypropylcellulose) (HPC)); 94 % of control under setting [6]; 95 % of control under setting [7]; 94 % of control under setting [8].

Turning to `N#CC(OC(=O)c1ccccc1)c1ccccc1` (centres undefined), the T/C runs as follows: (dose: 75.0 mg/kg/injection, schedule: Q01DX001 (ip), vehicle: other) 104 % of control; (dose: 150.0 mg/kg/injection, schedule: Q01DX001 (ip), vehicle: other) 105 % of control.

`CCCCCCCCCCCCCCCC[n+]1ccc(/C=C/c2ccccc2)cc1`: the T/C is, setting by setting: (dose: 2.5 mg/kg/injection, schedule: Q01DX001 (ip), vehicle: carboxymethylcellulose (CMC)) 116 % of control; (dose: 5.0 mg/kg/injection, schedule: Q01DX001 (ip), vehicle: carboxymethylcellulose (CMC)) 121 % of control; (dose: 10.0 mg/kg/injection, schedule: Q01DX001 (ip), vehicle: carboxymethylcellulose (CMC)) 116 % of control.

Turning to `Nc1nc(Cl)c(Cl)nc1N`, the T/C was 95 % of control under setting [1], 100 % of control under setting [2] and 95 % of control under setting [3].

With `COC(=O)N1c2ccccc2C=CC1C#N` (centres undefined), the T/C is, setting by setting: (dose: 44.0 mg/kg/injection, schedule: Q04DX002 (ip), vehicle: saline with Tween-80) 151 % of control; (dose: 44.0 mg/kg/injection, schedule: Q04DX003 (ip), vehicle: saline with Tween-80) 109 % of control; (dose: 44.0 mg/kg/injection, schedule: Q04DX003 (ip), vehicle: saline) 108 % of control; (dose: 50.0 mg/kg/injection, schedule: Q01DX009 (ip), vehicle: saline with Tween-80) 104 % of control; (dose: 66.0 mg/kg/injection, schedule: Q04DX002 (ip), vehicle: saline with Tween-80) 173 % of control; (dose: 66.0 mg/kg/injection, schedule: Q04DX003 (ip), vehicle: saline with Tween-80) 103 % of control. Also, the T/C was 101 % of control (dose: 66.0 mg/kg/injection, schedule: Q04DX003 (ip), vehicle: saline); 106 % of control under setting [9]; 96 % of control (dose: 100.0 mg/kg/injection, schedule: Q01DX009 (ip), vehicle: saline with Tween-80); 189 % of control (dose: 100.0 mg/kg/injection, schedule: Q04DX002 (ip), vehicle: saline with Tween-80); 109 % of control and 209 % of control under setting [4]; 106 % of control (dose: 100.0 mg/kg/injection, schedule: Q04DX003 (ip), vehicle: saline). In addition, the T/C was 106 % of control under setting [10]; 102 % of control (dose: 200.0 mg/kg/injection, schedule: Q01DX009 (ip), vehicle: saline with Tween-80); 156 % of control (dose: 200.0 mg/kg/injection, schedule: Q04DX002 (ip), vehicle: saline with Tween-80); 111 % of control (dose: 200.0 mg/kg/injection, schedule: Q04DX003 (ip), vehicle: saline); 104 % of control (dose: 400.0 mg/kg/injection, schedule: Q01DX001 (ip), vehicle: saline with Tween-80); 96 % of control (dose: 400.0 mg/kg/injection, schedule: Q04DX003 (ip), vehicle: saline with Tween-80).

With `O=C(O)c1cc2ccc3ccccc3c2oc1=O`, the T/C was 87 % of control (dose: 100.0 mg/kg/injection, schedule: Q01DX001 (ip), vehicle: carboxymethylcellulose (CMC)); 92 % of control (dose: 200.0 mg/kg/injection, schedule: Q01DX001 (ip), vehicle: carboxymethylcellulose (CMC)); 92 % of control (dose: 400.0 mg/kg/injection, schedule: Q01DX001 (ip), vehicle: carboxymethylcellulose (CMC)).

As to `O=c1c2ccccc2sc2c1ccc1c2ccc2c(=O)c3ccccc3sc21`, the T/C under setting [4] was 96 % of control and the T/C under setting [5] is 87 % of control.

In the case of `O=S1ON=C(c2ccccc2)N1c1ccccc1Cl` (centres undefined), the T/C runs as follows: under setting [1], 93 % of control; under setting [2], 93 % of control; under setting [3], 88 % of control.

Consider `CCOc1ccccc1/C=N/Nc1c2ccccc2nc2ccccc12`, for which the T/C runs as follows: under setting [11], 90 % of control; under setting [12], 97 % of control; under setting [13], 92 % of control.

In the case of `Cc1ccccc1C1=CCCCCC1`, the T/C runs as follows: (dose: 50.0 mg/kg/injection, schedule: Q01DX001 (ip), vehicle: saline) 93 % of control; under setting [11], 93 % of control; under setting [12], 98 % of control; under setting [13], 107 % of control.

On to `CC12CCCCC1CC/C(=C\c1ccc(Cl)cc1)C2=O` (centres undefined), for which the T/C runs as follows: under setting [11], 114 % of control; under setting [12], 95 % of control; under setting [13], 92 % of control.

With `Cc1cc(N(C)C)nc(SCc2ccc(F)cc2)n1`, the T/C (dose: 200.0 mg/kg/injection, schedule: Q01DX Z (ip), vehicle: methylcellulose (MC)) was 96 % of control.

The values are drawn from PubChem BioAssay AID248 (DTP/NCI, 2004).
